Source: patent US8119808B2, “Tetrahydroquinoline derivatives as cannabinoid receptor modulators” (Bristol-Myers Squibb Company, priority 2003, dated 2012)

In the case of `N#Cc1ccc2c(c1)C[C@H](NS(=O)(=O)c1ccccc1)CN2C(=O)c1ccccc1`, the melting point is reported as 174 to 175 °C.
